Test results: ChEMBL document CHEMBL5096191 (J Med Chem, 2021)
pEC50: −log10 of the molar value.

Assays:
Type in all cases: functional, cell-based
[1] = tested on: Cannabinoid receptor 2 (Homo sapiens), P34972 [V113M]; test: Partial agonist activity at CBR2 V1133.32M mutant (unknown origin) expressed in HEK293T assessed as increase in ERK1/2 phosphorylation incubated for 7 mins in presence of cannabidiol by AlphaScreenSureFire method relative to control; settings: filed as partial agonist
Cannabinoid receptor 2 [2] = molecular target: T1, Cannabinoid receptor 2 (Homo sapiens, UniProt P34972); test: Partial agonist activity at wild type CB2 receptor (unknown origin) expressed in HEK293T assessed as increase in ERK1/2 phosphorylation incubated for 7 mins by AlphaScreenSureFire method
[3] = tested on: Cannabinoid receptor 2 (Homo sapiens), P34972 [A282M]; test: Partial agonist activity at CBR2 A2827.36M mutant (unknown origin) stably expressed in HEK293T assessed as decrease in forskolin induced cAMP level preincubated for 15 mins followed by forskolin addition incubated for 15 mins in presence of cannabidiol by HTRF assay relative to control; settings: filed as partial agonist, time 30.0 min
[4] = tested on: Cannabinoid receptor 2 (Homo sapiens), P34972 [S285L]; test: Partial agonist activity at CBR2 S2857.39L mutant (unknown origin) expressed in HEK293T assessed as increase in ERK1/2 phosphorylation incubated for 7 mins by AlphaScreenSureFire method relative to control; settings: filed as partial agonist
Cannabinoid receptor 2 [5] = molecular target: T2, Cannabinoid receptor 2 (Homo sapiens, UniProt P34972, S285L); test: Partial agonist activity at CBR2 S2857.39L mutant (unknown origin) expressed in HEK293T assessed as increase in ERK1/2 phosphorylation incubated for 7 mins by AlphaScreenSureFire method
[6] = tested on: Cannabinoid receptor 2 (Homo sapiens), P34972 [V36M]; test: Partial agonist activity at CBR2 V361.35M mutant (unknown origin) expressed in HEK293T assessed as increase in ERK1/2 phosphorylation incubated for 7 mins in presence of cannabidiol by AlphaScreenSureFire method relative to control; settings: filed as partial agonist
Cannabinoid receptor 2 [7] = molecular target: T3, Cannabinoid receptor 2 (Homo sapiens, UniProt P34972, V113M); test: Partial agonist activity at CBR2 V1133.32M mutant (unknown origin) expressed in HEK293T assessed as increase in picometer shifts of reflected light wavelengths in presence of cannabidiol by DMR assay
[8] = tested on: Cannabinoid receptor 2 (Homo sapiens), P34972 [A282M]; test: Partial agonist activity at CBR2 A2827.36M mutant (unknown origin) expressed in HEK293T assessed as increase in picometer shifts of reflected light wavelengths in presence of cannabidiol by DMR assay relative to control; settings: filed as partial agonist
[9] = tested on: Cannabinoid receptor 2 (Homo sapiens), P34972 [A282M]; test: Partial agonist activity at CBR2 A2827.36M mutant (unknown origin) expressed in HEK293T assessed as increase in ERK1/2 phosphorylation incubated for 7 mins by AlphaScreenSureFire method relative to control; settings: filed as partial agonist
Cannabinoid receptor 2 [10] = molecular target: T1, Cannabinoid receptor 2; test: Partial agonist activity at wild type CB2 receptor (unknown origin) expressed in HEK293T assessed as increase in picometer shifts of reflected light wavelengths by DMR assay
Cannabinoid receptor 2 [11] = molecular target: T3, Cannabinoid receptor 2; test: Partial agonist activity at CBR2 V1133.32M mutant (unknown origin) expressed in HEK293T assessed as increase in ERK1/2 phosphorylation incubated for 7 mins in presence of cannabidiol by AlphaScreenSureFire method
Cannabinoid receptor 2 [12] = molecular target: T2, Cannabinoid receptor 2; test: Partial agonist activity at CBR2 S2857.39L mutant (unknown origin) stably expressed in HEK293T assessed as decrease in forskolin induced cAMP level preincubated for 15 mins followed by forskolin addition incubated for 15 mins by HTRF assay
[13] = tested on: Cannabinoid receptor 2 (Homo sapiens), P34972 [V36M]; test: Partial agonist activity at CBR2 V361.35M mutant (unknown origin) expressed in HEK293T assessed as increase in ERK1/2 phosphorylation incubated for 7 mins by AlphaScreenSureFire method relative to control; settings: filed as partial agonist
[14] = tested on: Cannabinoid receptor 2 (Homo sapiens), P34972 [A282M]; test: Partial agonist activity at CBR2 A2827.36M mutant (unknown origin) expressed in HEK293T assessed as increase in picometer shifts of reflected light wavelengths by DMR assay relative to control; settings: filed as partial agonist
Cannabinoid receptor 2 [15] = molecular target: T1, Cannabinoid receptor 2; test: Positive allosteric modulation of JWH-133-induced agonist activity at wild type CB2 receptor (unknown origin) stably expressed in HEK293T cells assessed as inhibition of forskolin-stimulated cAMP levels preincubated for 15 mins followed by forskolin addition incubated for 15 mins by HTRF assay
[16] = tested on: Cannabinoid receptor 2 (Homo sapiens), P34972 [V36M]; test: Partial agonist activity at CBR2 V361.35M mutant (unknown origin) stably expressed in HEK293T assessed as decrease in forskolin induced cAMP level preincubated for 15 mins followed by forskolin addition incubated for 15 mins in presence of cannabidiol by HTRF assay relative to control; settings: filed as partial agonist, time 30.0 min
Cannabinoid receptor 2 [17] = molecular target: Cannabinoid receptor 2 (Homo sapiens, UniProt P34972, V36M); test: Partial agonist activity at CBR2 V361.35M mutant (unknown origin) stably expressed in HEK293T assessed as decrease in forskolin induced cAMP level preincubated for 15 mins followed by forskolin addition incubated for 15 mins in presence of cannabidiol by HTRF assay
Cannabinoid receptor 2 [18] = molecular target: T2, Cannabinoid receptor 2; test: Partial agonist activity at CBR2 S2857.39L mutant (unknown origin) expressed in HEK293T assessed as increase in ERK1/2 phosphorylation incubated for 7 mins in presence of cannabidiol by AlphaScreenSureFire method
Cannabinoid receptor 2 [19] = molecular target: T1, Cannabinoid receptor 2; test: Partial agonist activity at wild type CB2 receptor (unknown origin) stably expressed in HEK293T assessed as decrease in forskolin induced cAMP level preincubated for 15 mins followed by forskolin addition incubated for 15 mins by HTRF assay relative to control; settings: filed as partial agonist, time 30.0 min
[20] = tested on: Cannabinoid receptor 2 (Homo sapiens), P34972 [S285L]; test: Partial agonist activity at CBR2 S2857.39L mutant (unknown origin) stably expressed in HEK293T assessed as decrease in forskolin induced cAMP level preincubated for 15 mins followed by forskolin addition incubated for 15 mins in presence of cannabidiol by HTRF assay relative to control; settings: filed as partial agonist, time 30.0 min
[21] = tested on: Cannabinoid receptor 2 (Homo sapiens), P34972 [V113M]; test: Partial agonist activity at CBR2 V1133.32M mutant (unknown origin) expressed in HEK293T assessed as increase in picometer shifts of reflected light wavelengths by DMR assay relative to control; settings: filed as partial agonist
Cannabinoid receptor 2 [22] = molecular target: Cannabinoid receptor 2 (Homo sapiens, UniProt P34972, A282M); test: Partial agonist activity at CBR2 A2827.36M mutant (unknown origin) stably expressed in HEK293T assessed as decrease in forskolin induced cAMP level preincubated for 15 mins followed by forskolin addition incubated for 15 mins by HTRF assay
Cannabinoid receptor 2 [23] = molecular target: T1, Cannabinoid receptor 2; test: Partial agonist activity at wild type CB2 receptor (unknown origin) expressed in HEK293T assessed as increase in picometer shifts of reflected light wavelengths in presence of cannabidiol by DMR assay relative to control; settings: filed as partial agonist
Cannabinoid receptor 2 [24] = molecular target: T1, Cannabinoid receptor 2; test: Positive allosteric modulation of JWH-133-induced agonist activity at wild type CB2 receptor (unknown origin) stably expressed in HEK293T cells assessed as inhibition of forskolin-stimulated cAMP levels preincubated for 15 mins followed by forskolin addition incubated for 15 mins by HTRF assay relative to control; settings: filed as positive allosteric modulator, time 30.0 min
[25] = tested on: Cannabinoid receptor 2 (Homo sapiens), P34972 [S285L]; test: Partial agonist activity at CBR2 S2857.39L mutant (unknown origin) expressed in HEK293T assessed as increase in picometer shifts of reflected light wavelengths by DMR assay relative to control; settings: filed as partial agonist
[26] = tested on: Cannabinoid receptor 2 (Homo sapiens), P34972 [V36M]; test: Partial agonist activity at CBR2 V361.35M mutant (unknown origin) expressed in HEK293T assessed as increase in picometer shifts of reflected light wavelengths in presence of cannabidiol by DMR assay relative to control; settings: filed as partial agonist

T1 sequence (P34972 whole entry): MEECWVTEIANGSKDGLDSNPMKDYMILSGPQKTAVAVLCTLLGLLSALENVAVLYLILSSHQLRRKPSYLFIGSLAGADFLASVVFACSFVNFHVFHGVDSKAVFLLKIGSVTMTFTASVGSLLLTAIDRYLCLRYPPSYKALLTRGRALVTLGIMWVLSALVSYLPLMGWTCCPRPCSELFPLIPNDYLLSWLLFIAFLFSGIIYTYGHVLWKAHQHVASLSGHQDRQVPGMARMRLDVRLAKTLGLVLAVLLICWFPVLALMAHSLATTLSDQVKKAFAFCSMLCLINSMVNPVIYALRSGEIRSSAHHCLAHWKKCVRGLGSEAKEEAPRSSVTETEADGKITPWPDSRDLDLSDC
Chain of Cannabinoid receptor 2 (Homo sapiens), P34972 [S285L] (P34972 whole entry S285L): as the sequence (P34972 whole entry) above, with S285L counted along it
T2 sequence (P34972 whole entry S285L): as the sequence (P34972 whole entry) above, with S285L counted along it
Chain of Cannabinoid receptor 2 (Homo sapiens), P34972 [A282M] (P34972 whole entry A282M): as the sequence (P34972 whole entry) above, with A282M counted along it
Chain of Cannabinoid receptor 2 (Homo sapiens), P34972 [V36M] (P34972 whole entry V36M): as the sequence (P34972 whole entry) above, with V36M counted along it
T3 sequence (P34972 whole entry V113M): as the sequence (P34972 whole entry) above, with V113M counted along it
Chain of Cannabinoid receptor 2 (Homo sapiens), P34972 [V113M] (P34972 whole entry V113M): as the sequence (P34972 whole entry) above, with V113M counted along it
Chain of Cannabinoid receptor 2 (Homo sapiens, UniProt P34972, A282M) (P34972 whole entry A282M): as the sequence (P34972 whole entry) above, with A282M counted along it
Chain of Cannabinoid receptor 2 (Homo sapiens, UniProt P34972, V36M) (P34972 whole entry V36M): as the sequence (P34972 whole entry) above, with V36M counted along it

## CCCC(C)(C)c1cc(O)c2c(c1)OC(C)(C)[C@@H]1CC=C(C)C[C@@H]21
[1]
  Emax: 216%
Cannabinoid receptor 2 [2]
  pEC50: 8.10
[3]
  Emax: 48.8%
[4]
  Emax: 374%
Cannabinoid receptor 2 [5]
  pEC50: 7.40
[6]
  Emax: 353%
Cannabinoid receptor 2 [7]
  pEC50: 6.40
[8]
  Emax: 189%
[9]
  Emax: 376%
Cannabinoid receptor 2 [10]
  pEC50: 6.20
Cannabinoid receptor 2 [11]
  pEC50: 7.40
Cannabinoid receptor 2 [12]
  pEC50: 7.40
[13]
  Emax: 363%
[14]
  Emax: 199%
Cannabinoid receptor 2 [15]
  pEC50: 7.60
[16]
  Emax: 53%
Cannabinoid receptor 2 [17]
  pEC50: 7.80
Cannabinoid receptor 2 [18]
  pEC50: 7.50
Cannabinoid receptor 2 [19]
  Emax: 46%
[20]
  Emax: 57.4%
[21]
  Emax: 79.9%
Cannabinoid receptor 2 [22]
  pEC50: 7.90
Cannabinoid receptor 2 [23]
  Emax: 117%
Cannabinoid receptor 2 [24]
  Emax: 56%
[25]
  Emax: 223%
[26]
  Emax: 200%
